This assay deals with T1, Equilibrative nucleoside transporter 1 (Homo sapiens, UniProt Q99808).
T1 sequence (Q99808 whole entry): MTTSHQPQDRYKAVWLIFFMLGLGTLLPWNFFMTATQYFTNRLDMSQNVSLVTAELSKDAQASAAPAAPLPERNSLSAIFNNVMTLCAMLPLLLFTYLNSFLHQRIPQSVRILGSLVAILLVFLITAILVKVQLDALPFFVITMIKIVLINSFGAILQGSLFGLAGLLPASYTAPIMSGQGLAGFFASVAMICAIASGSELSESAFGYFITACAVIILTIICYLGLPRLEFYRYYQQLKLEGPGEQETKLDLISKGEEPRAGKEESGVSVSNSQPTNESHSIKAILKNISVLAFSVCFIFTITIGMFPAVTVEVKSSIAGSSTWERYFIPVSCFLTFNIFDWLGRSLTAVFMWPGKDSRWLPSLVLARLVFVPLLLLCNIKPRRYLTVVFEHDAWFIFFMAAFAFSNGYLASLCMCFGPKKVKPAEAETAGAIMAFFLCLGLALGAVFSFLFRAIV
The assay can be described thus: Inhibition of the equilibrative nucleoside transporter (ENT1, SLC29A1) as assessed by GPCR-mediated changes in cell morphology using the impedance-based transporter activity through receptor activation (TRACT) assay (PubChem AID: 1745861). The class given is functional, U2OS.

One compound from ChEMBL document CHEMBL5209562, “Label-free detection of transporter activity via GPCR signalling in living cells: A case for SLC29A1, the equilibrative nucleoside transporter 1” (Sci Rep, 2019) can be followed below.

For orientation: IC50 means the midpoint of a concentration-inhibition curve. Lower therefore signals greater potency in that assay. With `NC(=O)C1CN(CCCCC(c2ccc(F)cc2)c2ccc(F)cc2)CCN1CC(=O)Nc1c(Cl)cc(N)cc1Cl` (stereo unspecified) [DRAFLAZINE], the IC50 is 5.3 nM.
